For one experiment, the target named is Human M3 receptor (Homo sapiens (Human), UniProt P20309). The experiment is described as follows: M3 receptor radioligand binding assay. As to the method: M3 Receptor Radioligand Binding Assay:
The assay is carried out in 96-well polypropylene plates in a volume of 250 μl. […] The final assay concentration of DMSO is 0.5% (v/v). The plates are sealed and incubated for 2 h at room temperature on an orbital shaker (slow speed). Membranes are harvested onto 96-well unifilter GF/C filter plates pre-treated with 0.5% polyethyleneimine (v/v), using a filter manifold, washed four times with […] of assay buffer. The plates are dried before addition of 50 μl of microscint-0, sealed then read in a Trilux Microbeta scintillation counter. IC50 values are determined from competition curves using a non-linear curve fitting program. Ki values are calculated from IC50 values by the Cheng and Prusoff equation.

The next experiment has as its target Human recombinant PDE4B2 (Homo sapiens (Human), UniProt Q07343). The experiment is described as follows: PDE4B2 HTRF assay. The class given is biochemical. The method, then: PDE4B2 activity is detected using the LANCE Ultra cAMP homogeneous time resolved fluorescence resonance energy transfer (TR-FRET) assay from Perkin Elmer. The assay is based on the competition between the europium (Eu) chelate-labeled cAMP tracer and sample cAMP for binding sites on cAMP-specific monoclonal antibodies (mAb) labelled with the ULight™ dye. The assay is carried out in 384-well low volume plates in a volume of 10 μl. Human recombinant PDE4B2 (80 pM) is incubated for 2 h with 3 nM cAMP in buffer containing 1×HBSS, 5 mM HEPES, 3 mM MgCl2, 0.1% BSA, pH 7.4 with or without test compounds. The enzymatic reactions are efficiently stopped by the addition of 500 μM IBMX present in the combined Stop/Detection buffer containing europium (Eu) chelate-labeled cAMP tracer and cAMP-specific monoclonal antibodies (mAb) labelled with the ULight™ dye. […] IC50 values are determined from competition curves using a non-linear curve fitting program.
(In TR-FRET formats the signal depends on donor and acceptor labels being close together.)

Setting [1] is: M3 Receptor radioligand binding assay, read-out: M3 IC50 Activity.
The mark [2] stands for this setting: PDE4B2 HTRF assay, read-out: PDE4B2 IC50 Activity.

Experimental findings from US9809582B2, “Aminoester derivatives” (CHIESI FARMACEUTICI S.p.A., priority 2015, dated 2017) are described below.

Like-named read-outs stand apart in the source and are kept apart here.

Chain of Human M3 receptor (P20309 whole entry): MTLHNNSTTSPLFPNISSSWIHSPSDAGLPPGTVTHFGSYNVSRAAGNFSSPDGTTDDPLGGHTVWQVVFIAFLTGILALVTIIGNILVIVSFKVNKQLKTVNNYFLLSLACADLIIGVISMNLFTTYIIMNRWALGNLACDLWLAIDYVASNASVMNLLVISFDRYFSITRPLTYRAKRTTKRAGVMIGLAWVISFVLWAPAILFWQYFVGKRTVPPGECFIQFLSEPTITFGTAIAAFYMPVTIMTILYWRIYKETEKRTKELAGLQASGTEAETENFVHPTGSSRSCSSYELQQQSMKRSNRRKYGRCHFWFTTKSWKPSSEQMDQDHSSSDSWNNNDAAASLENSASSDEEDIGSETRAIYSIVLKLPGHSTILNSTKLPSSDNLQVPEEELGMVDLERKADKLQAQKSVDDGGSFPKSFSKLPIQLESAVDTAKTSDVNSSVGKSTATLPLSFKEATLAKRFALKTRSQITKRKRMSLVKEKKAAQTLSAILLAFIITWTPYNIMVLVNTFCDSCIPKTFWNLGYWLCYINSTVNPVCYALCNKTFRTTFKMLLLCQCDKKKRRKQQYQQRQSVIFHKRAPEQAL
Chain of Human recombinant PDE4B2 (Q07343 other isoform, or with tags, fused parts or gaps): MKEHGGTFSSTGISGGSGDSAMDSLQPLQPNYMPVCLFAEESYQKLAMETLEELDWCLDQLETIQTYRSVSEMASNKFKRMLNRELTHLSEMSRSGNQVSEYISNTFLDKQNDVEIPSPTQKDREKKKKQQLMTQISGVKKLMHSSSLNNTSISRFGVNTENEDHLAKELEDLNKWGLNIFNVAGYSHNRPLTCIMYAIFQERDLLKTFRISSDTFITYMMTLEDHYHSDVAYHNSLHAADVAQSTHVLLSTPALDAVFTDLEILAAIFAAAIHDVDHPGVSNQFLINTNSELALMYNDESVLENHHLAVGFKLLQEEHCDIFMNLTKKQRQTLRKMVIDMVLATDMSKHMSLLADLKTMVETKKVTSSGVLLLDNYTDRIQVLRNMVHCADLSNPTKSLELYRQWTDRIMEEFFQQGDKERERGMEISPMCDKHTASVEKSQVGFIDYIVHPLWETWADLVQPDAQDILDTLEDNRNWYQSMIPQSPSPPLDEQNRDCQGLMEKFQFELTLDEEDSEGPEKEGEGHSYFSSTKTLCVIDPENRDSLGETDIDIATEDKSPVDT

Usually IC50 stands for the midpoint of a concentration-inhibition curve. As to `COc1ccc([C@H](Cc2c(Cl)c[n+]([O-])cc2Cl)OC(=O)c2ccc(CNC3CC(C(=O)OC4CCN(C)CC4)(c4ccccc4)C3)s2)cc1OC` (single isomer, unassigned) [Example 35], the IC50 on Human M3 receptor (setting [1]) and at Human recombinant PDE4B2 (setting [2]) was 1 to 10 nM in each case. As to `COc1ccc([C@H](Cc2c(Cl)c[n+]([O-])cc2Cl)OC(=O)c2ccc(CN(C)CC(C)(C(=O)O[C@H]3CN4CCC3CC4)c3ccccc3)s2)cc1OC` (stereo partly drawn) [Example 10, [(1S)-2-(3,5-dichloro-1-oxido-pyridin-1-ium-4-yl)-1-(3,4-dimethoxyphenyl)ethyl]-5-[[methyl-[2-methyl-3-oxo-2-phenyl-3-[(3R)-quinuclidin-3-yl]oxy-propyl]amino]methyl]thiophene-2-carboxylate], the IC50 at Human M3 receptor (M3 IC50 Activity) and on Human recombinant PDE4B2 was 1 to 10 nM throughout. Consider `COc1ccc([C@H](Cc2c(Cl)c[n+]([O-])cc2Cl)OC(=O)c2ccc(CNCC(C(=O)O[C@H]3CN4CCC3CC4)c3ccccc3)cc2)cc1OC` (stereo partly drawn) [Example 2, [(1S)-2-(3,5-dichloro-1-oxido-pyridin-1-ium-4-yl)-1-(3,4-dimethoxyphenyl)ethyl] 4-[[[3-oxo-2-phenyl-3-[(3R)-quinuclidin-3-yl]oxy-propyl]amino]methyl]benzoate], for which the IC50 at Human M3 receptor (M3 IC50 Activity) and at Human recombinant PDE4B2 was 1 to 10 nM throughout. For `COc1ccc([C@H](Cc2c(Cl)c[n+]([O-])cc2Cl)OC(=O)c2ccc(CNCC(C(=O)O[C@H]3CN4CCC3CC4)c3ccccc3)s2)cc1OC` (single isomer, unassigned) [Example 20], the IC50 was < 1 nM on Human M3 receptor (M3 IC50 Activity) and 1 to 10 nM on Human recombinant PDE4B2. Regarding `COc1ccc([C@H](Cc2c(Cl)c[n+]([O-])cc2Cl)OC(=O)c2ccc(CNC3CC(C(=O)OC4CCN(C)CC4)(c4ccccc4)C3)s2)cc1OC` (stereo partly drawn) [Example 32, [(1S)-2-(3,5-dichloro-1-oxido-pyridin-1-ium-4-yl)-1-(3,4-dimethoxyphenyl)ethyl] 5-[[[3-[(1-methyl-4-piperidyl)oxycarbonyl]-3-phenyl-cyclobutyl]amino]methyl]-thiophene-2-carboxylate], the figures for the 50% inhibitory concentration (IC50) on Human M3 receptor (setting [1]) and on Human recombinant PDE4B2 (setting [2]) were 10 to 100 nM and < 1 nM, respectively. Turning to `COc1ccc([C@H](Cc2c(Cl)c[n+]([O-])cc2Cl)OC(=O)c2ccc(CN(C)CC(C)(C(=O)O[C@H]3CN4CCC3CC4)c3ccccc3)s2)cc1OC` (stereo partly drawn) [Example 26, [(1S)-2-(3,5-dichloro-1-oxido-pyridin-1-ium-4-yl)-1-(3,4-dimethoxyphenyl)ethyl] 5-[[methyl-[2-methyl-3-oxo-2-phenyl-3-[(3R)-quinuclidin-3-yl]oxy-propyl]amino]methyl]thiophene-2-carboxylate], the 50% inhibitory concentration (IC50) on Human M3 receptor (read-out: M3 IC50 Activity) and on Human recombinant PDE4B2 (read-out: PDE4B2 IC50 Activity) was 1 to 10 nM throughout. With `COc1ccc([C@H](Cc2c(Cl)c[n+]([O-])cc2Cl)OC(=O)c2ccc(CNC3CC(C(=O)O[C@H]4CN5CCC4CC5)(c4ccccc4)C3)s2)cc1OC` (stereo partly drawn) [Example 33, [(1S)-2-(3,5-dichloro-1-oxido-pyridin-1-ium-4-yl)-1-(3,4-dimethoxyphenyl)ethyl] 5-[[[3-phenyl-3-[(3R)-quinuclidin-3-yl]oxycarbonyl-cyclobutyl]amino]methyl]thiophene-2-carboxylate], the IC50 on Human M3 receptor (M3 IC50 Activity) and at Human recombinant PDE4B2 was 1 to 10 nM throughout. For the compound `COc1ccc([C@H](Cc2c(Cl)c[n+]([O-])cc2Cl)OC(=O)c2ccc(CCN3CCC(C(=O)O[C@H]4CN5CCC4CC5)(c4ccccc4)CC3)cc2)cc1OC` [Example 12, [(3R)-quinuclidin-3-yl]-1-[2-[4-[(1S)-2-(3,5-dichloro-1-oxido-pyridin-1-ium-4-yl)-1-(3,4-dimethoxyphenyl)ethoxy]carbonylphenyl]ethyl]-4-phenyl-piperidine-4-carboxylate], the IC50 on Human M3 receptor (M3 IC50 Activity) and at Human recombinant PDE4B2 was 1 to 10 nM throughout. In the case of `COc1ccc([C@H](Cc2c(Cl)c[n+]([O-])cc2Cl)OC(=O)c2ccc(CNCC(C)(C(=O)O[C@H]3CN4CCC3CC4)c3ccccc3)s2)cc1OC` (stereo partly drawn) [Example 31, [(1S)-2-(3,5-dichloro-1-oxido-pyridin-1-ium-4-yl)-1-(3,4-dimethoxyphenyl)ethyl] 5-[[[2-methyl-3-oxo-2-phenyl-3-[(3R)-quinuclidin-3-yl]oxy-propyl]amino]methyl]thiophene-2-carboxylate], the IC50 lay in the range of 10 to 100 nM on Human M3 receptor (M3 IC50 Activity) and 1 to 10 nM on Human recombinant PDE4B2. Take `COc1ccc([C@H](Cc2c(Cl)c[n+]([O-])cc2Cl)OC(=O)c2ccc(CNCC(C)(C(=O)OCCN(C)C)c3ccccc3)s2)cc1OC` (stereo partly drawn) [Example 29, [(1S)-2-(3,5-dichloro-1-oxido-pyridin-1-ium-4-yl)-1-(3,4-dimethoxyphenyl)ethyl] 5-[[[3-(2-dimethylaminoethyloxy)-2-methyl-3-oxo-2-phenyl-propyl]amino]methyl]thiophene-2-carboxylate]: the IC50 fell in the range of 10 to 100 nM on Human M3 receptor (setting [1]) and 1 to 10 nM on Human recombinant PDE4B2 (setting [2]). Turning to `COc1ccc([C@H](Cc2c(Cl)c[n+]([O-])cc2Cl)OC(=O)c2ccc(CNC3CC(C(=O)O[C@H]4CN5CCC4CC5)(c4ccccc4)C3)s2)cc1OC` (stereo partly drawn) [Example 37, [(1S)-2-(3,5-dichloro-1-oxido-pyridin-1-ium-4-yl)-1-(3,4-dimethoxyphenyl)ethyl] 5-[[[3-phenyl-3-[(3R)-quinuclidin-3-yl]oxycarbonyl-cyclobutyl]amino]methyl]thiophene-2-carboxylate], the IC50 at Human M3 receptor (read-out: M3 IC50 Activity) and on Human recombinant PDE4B2 (read-out: PDE4B2 IC50 Activity) was 1 to 10 nM each time. In the case of `COc1ccc([C@H](Cc2c(Cl)c[n+]([O-])cc2Cl)OC(=O)c2ccc(CNCC(C(=O)O[C@H]3CN4CCC3CC4)c3ccccc3)s2)cc1OC` (single isomer, unassigned) [Example 21], the IC50 on Human M3 receptor (M3 IC50 Activity) and on Human recombinant PDE4B2 (read-out: PDE4B2 IC50 Activity) was 1 to 10 nM each time. For the compound `COc1ccc([C@H](Cc2c(Cl)c[n+]([O-])cc2Cl)OC(=O)c2ccc(CNCC(C(=O)O[C@H]3CN4CCC3CC4)c3ccccc3)s2)cc1OC` (stereo partly drawn) [Example 1, [(1S)-2-(3,5-dichloro-1-oxido-pyridin-1-ium-4-yl)-1-(3,4-dimethoxyphenyl)ethyl] 5-[[[3-oxo-2-phenyl-3-[(3R)-quinuclidin-3-yl]oxy-propyl]amino]methyl]thiophene-2-carboxylate], the IC50 at Human M3 receptor (M3 IC50 Activity) and at Human recombinant PDE4B2 was 1 to 10 nM each time.

For the compound `COc1ccc([C@H](Cc2c(Cl)c[n+]([O-])cc2Cl)OC(=O)c2ccc(CNCC(C(=O)OCCN(C)C)c3ccccc3)s2)cc1OC` (stereo partly drawn) [Example 22, [(1S)-2-(3,5-dichloro-1-oxido-pyridin-1-ium-4-yl)-1-(3,4-dimethoxyphenyl)ethyl] 5-[[[3-(2-dimethylaminoethyloxy)-3-oxo-2-phenyl-propyl]amino]methyl]thiophene-2-carboxylate], the IC50 on Human M3 receptor (setting [1]) and on Human recombinant PDE4B2 (setting [2]) was 1 to 10 nM in each case. As to `COc1ccc([C@H](Cc2c(Cl)c[n+]([O-])cc2Cl)OC(=O)c2ccc(CN3CC(C(=O)O[C@@H]4CCN(C)C4)(c4ccccc4)C3)s2)cc1OC` [Example 16, [(3R)-1-methylpyrrolidin-3-yl] 1-[[5-[(1S)-2-(3,5-dichloro-1-oxido-pyridin-1-ium-4-yl)-1-(3,4-dimethoxyphenyl)ethoxy]carbonyl-2-thienyl]methyl]-3-phenyl-azetidine-3-carboxylate], the IC50 on Human M3 receptor (setting [1]) and on Human recombinant PDE4B2 (setting [2]) was 1 to 10 nM each time. For the compound `COc1ccc([C@H](Cc2c(Cl)c[n+]([O-])cc2Cl)OC(=O)c2ccc(CNCC(C(=O)O[C@@H]3CCN(C)C3)c3ccccc3)s2)cc1OC` (stereo partly drawn) [Example 4, [(1S)-2-(3,5-dichloro-1-oxido-pyridin-1-ium-4-yl)-1-(3,4-dimethoxyphenyl)ethyl]-5-[[[3-[(3R)-1-methylpyrrolidin-3-yl]oxy-3-oxo-2-phenyl-propyl]amino]methyl]thiophene-2-carboxylate], the IC50 at Human M3 receptor (setting [1]) was 10 to 100 nM; on Human recombinant PDE4B2 (setting [2]), 1 to 10 nM. Turning to `COc1ccc([C@H](Cc2c(Cl)c[n+]([O-])cc2Cl)OC(=O)c2ccc(CN3CCC(C(=O)O[C@H]4CN5CCC4CC5)(c4ccccc4)CC3)cc2)cc1OC` [Example 11, [(3R)-quinuclidin-3-yl]-1-[[4-[(1S)-2-(3,5-dichloro-1-oxido-pyridin-1-ium-4-yl)-1-(3,4-dimethoxyphenyl)ethoxy]-carbonylphenyl]methyl]-4-phenyl-piperidine-4-carboxylate], the IC50 was 10 to 100 nM at Human M3 receptor (M3 IC50 Activity) and 1 to 10 nM at Human recombinant PDE4B2. With `COc1ccc([C@H](Cc2c(Cl)c[n+]([O-])cc2Cl)OC(=O)c2ccc(CN3CC(C(=O)O[C@H]4CN5CCC4CC5)(c4ccccc4)C3)s2)cc1OC` [Example 15, [(3R)-quinuclidin-3-yl]-1-[[5-[(1S)-2-(3,5-dichloro-1-oxido-pyridin-1-ium-4-yl)-1-(3,4-dimethoxyphenyl)ethoxy]carbonyl-2-thienyl]methyl]-3-phenyl-azetidine-3-carboxylate], on Human recombinant PDE4B2, the IC50 lay within 1 to 10 nM. Turning to `COc1ccc([C@H](Cc2c(Cl)c[n+]([O-])cc2Cl)OC(=O)c2ccc(CNC3CC(C(=O)OC4CCN(C)CC4)(c4ccccc4)C3)s2)cc1OC` (single isomer, unassigned) [Example 34], the results for the IC50 on Human M3 receptor (setting [1]) and at Human recombinant PDE4B2 (setting [2]) were 10 to 100 nM and 1 to 10 nM, respectively.
